From US5605929A, “Methods and compositions for inhibiting 5α-reductase activity” (priority 1995, dated 1997) come the findings set out here.

The experiment concerns the target T1, 5α-Reductase of Rat Liver Microsomes (Rattus norvegicus, UniProt P24008).
T1 sequence (P24008 1-259): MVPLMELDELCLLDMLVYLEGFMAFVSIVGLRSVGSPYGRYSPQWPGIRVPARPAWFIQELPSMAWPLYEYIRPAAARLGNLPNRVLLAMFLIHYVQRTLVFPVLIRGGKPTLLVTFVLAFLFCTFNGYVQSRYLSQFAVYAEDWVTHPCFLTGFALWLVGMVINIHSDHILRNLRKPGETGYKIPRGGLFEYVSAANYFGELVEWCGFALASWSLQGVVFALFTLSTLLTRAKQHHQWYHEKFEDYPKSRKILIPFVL
Put plainly: biochemical. As to conditions: for inhibition at 5 µM: read-out: % Inhibition of [^3 H]4-MA binding, Table 2, 5 μM.

The mark [1] stands for this setting: read-out: % Inhibition of [^3 H]4-MA binding, Table 2, 10 μM.
Setting [2] is: read-out: % Inhibition of [^3 H]4-MA binding, Table 2, 40 μM.
Where [3] appears, read: read-out: % Inhibition of [^3 H]4-MA binding, Table 2, 200 μM.
[4] abbreviates: read-out: % Inhibition of [^3 H]4-MA binding.

Where two headings read alike, the source gives them in different places. Bounds are passed on as bounds.

Broadly, the IC50 is the concentration that inhibits the measured activity by half. Read a low IC50 as inhibition by little substance. A word on the inhibition: it is how much of the control response was suppressed.

Consider `CCCCC/C=C\C/C=C\CCCCCCCCC(=O)O` [10,13-Nonadecadienoic Acid, 10,13-nonadecadienoic acid], for which it took 86 µM to reach half-maximal inhibition (IC50) and the inhibition at 5 µM was < 10%. For the same compound, under setting [1], the inhibition at 10 µM was < 10%. The inhibition at 40 µM under setting [2] amounted to 37%. The inhibition at 200 µM under setting [3] came to 83%.

On to `CCCCC/C=C\C/C=C\C/C=C\C/C=C\CCCCCC(=O)O`, for which the IC50 came to 46 µM and the inhibition at 5 µM was < 10%. The inhibition at 10 µM under setting [1] was < 10%. Moreover, the inhibition at 40 µM under setting [2] was 41%. In addition, the inhibition at 200 µM under setting [3] was found to be 79%.

Regarding `CCCC/C=C\CCCCCCCCCCCC(=O)O` [13-Octadecenoic Acid, 13-octadecenoic acid], the IC50 was 93 µM and the inhibition at 5 µM was < 10%. Further, under setting [1], the inhibition at 10 µM is < 10%. For the same compound, under setting [2], the inhibition at 40 µM was < 10%. In addition, the inhibition at 200 µM under setting [3] was found to be 57%.

Regarding `CCCCCC/C=C/CCCCCCCCC(=O)O` [10-trans-Heptadecenoic Acid, 10-trans-heptadecenoicacid], the IC50 was > 200 µM and the inhibition at 5 µM is < 10%. The inhibition at 10 µM under setting [1] is < 10%. Also, the inhibition at 40 µM under setting [2] is < 10%. The inhibition at 200 µM under setting [3] amounted to 40%.

Consider `CCCCCCCC/C=C\CCCCCCCCCC(=O)O` [11-Eicosenoic Acid, 11 eicosenoic acid], for which the IC50 stood at 146 µM and the inhibition at 5 µM is < 10%. In addition, the inhibition at 10 µM under setting [1] was < 10%. The inhibition at 40 µM under setting [2] turned out to be 15%. In addition, the inhibition at 200 µM under setting [3] was found to be 76%.

`CCCC/C=C\CCCCCCCCC(=O)O` [10-Pentadecenoic Acid, 10-pentadecenoic acid]: half-maximal inhibition (IC50) required 100 µM and the inhibition at 5 µM was < 10%. Under setting [1], the inhibition at 10 µM was < 10%. Further, under setting [2], the inhibition at 40 µM is < 10%. The inhibition at 200 µM under setting [3] stood at 71%.

`CCCCC/C=C\C/C=C\CCCCCCCCCC(=O)OC` [11,14-cis-Eicosadienoate, methyl 11,14 eicosadienoate]: the IC50 was > 200 µM and the inhibition at 5 µM was < 10%. Also, the inhibition at 10 µM under setting [1] is < 10%. In addition, the inhibition at 40 µM under setting [2] is < 10%. Besides, the inhibition at 200 µM under setting [3] was < 10%.

In the case of `CC/C=C\C/C=C\C/C=C\CCCCCCCCCCCC(=O)O` [13,16,19-Docosatrienoic Acid, 13,16,19-docosatrienoic acid], the IC50 turned out to be 163 µM and the inhibition at 5 µM is < 10%. Besides, the inhibition at 10 µM under setting [1] is < 10%. For the same compound, the inhibition at 40 µM under setting [2] is < 10%. The inhibition at 200 µM under setting [3] turned out to be 65%.

Regarding `CCCCCC/C=C\CCCCCCCCCC(=O)O` [11-Octadecenoic Acid, 11-octadecenoic acid], the IC50 amounted to 26 µM and the inhibition at 5 µM was < 10%. For the same compound, the inhibition at 10 µM under setting [1] worked out at 14%. Besides, the inhibition at 40 µM under setting [2] is 55%. Besides, the inhibition at 200 µM under setting [3] turned out to be 81%.

As for `CCCCCCCC/C=C\CCCCCCCCC(=O)O` [10-cis-Nonadecenoic Acid, 10-nonadecenoic acid], the IC50 was 130 µM and the inhibition at 5 µM is < 10%. Also, the inhibition at 10 µM under setting [1] was < 10%. In addition, the inhibition at 40 µM under setting [2] is 13%. In addition, the inhibition at 200 µM under setting [3] came out at 79%.

On to `CCCCC/C=C/C/C=C/CCCCCCCCCC(=O)O` [11,14-trans-Eicosadienoic Acid, trans 11,14-eicosadienoic acid], for which the IC50 was > 200 µM and the inhibition at 5 µM is < 10%. The inhibition at 10 µM under setting [1] is < 10%. The inhibition at 40 µM under setting [2] is < 10%. The inhibition at 200 µM under setting [3] is < 10%.

Take `CCCCC/C=C\C/C=C\C/C=C\CCCCCCC(=O)OC` [methyl homo-γ-linolenate]: the IC50 is > 200 µM.

Turning to `CC/C=C\C/C=C\C/C=C\CCCCCCCC(=O)OC` [α-Linolenic acid methyl ester], under setting [4], the inhibition at 10 µM was < 10%, the inhibition at 40 µM was < 10% and the inhibition at 200 µM was < 10%.

In the case of `CCCCCCCC/C=C/CCCCCCCCC(=O)O` [10-trans-Nonadecenoic Acid, 10-trans nonadecenoic acid], the half-maximal inhibitory concentration (IC50) is > 200 µM and the inhibition at 5 µM is < 10%. Further, the inhibition at 10 µM under setting [1] was < 10%. Further, the inhibition at 40 µM under setting [2] is < 10%. Further, under setting [3], the inhibition at 200 µM was determined as 32%.

As to `CCCCC/C=C\C/C=C\CCCCCCCCCC(=O)Cl` [11,14-cis-Eicosaidienoyl Chloride, 11,14-eicosadienoyl chloride], the IC50 is > 200 µM and the inhibition at 5 µM was < 10%. Further, under setting [1], the inhibition at 10 µM is < 10%. For the same compound, the inhibition at 40 µM under setting [2] was < 10%. In addition, under setting [3], the inhibition at 200 µM was < 10%.

`CC/C=C\C/C=C\C/C=C\CCCCCCCCO` [α-Linolenyl alcohol]: under setting [4], the inhibition at 10 µM is < 10%, the inhibition at 40 µM is < 10% and the inhibition at 200 µM amounted to 24 ± 1%.

For `CCCCC/C=C/C/C=C/CCCCCCCCC#N` [linolelaidyl cyanide nitrile], the 50% inhibitory concentration (IC50) is > 200 µM.

With `CCCCCCCCCCC/C=C\CCCCCCC(=O)O` [8-Eicosenoic Acid, 8-eicosenoic acid], half-maximal inhibition (IC50) required 48 µM and the inhibition at 5 µM was 14%. Besides, the inhibition at 10 µM under setting [1] was found to be 41%. Also, under setting [2], the inhibition at 40 µM came to 52%. For the same compound, the inhibition at 200 µM under setting [3] amounted to 81%.

Turning to `CCC=CCC=CCC=CCCCCCCCCCCCC(=O)OC` [methyl 13,16,19-docosatrienoate], the IC50 is > 200 µM.

Turning to `CCCCC/C=C\C/C=C\C/C=C\CCCCCCC(=O)O` [8,11,14-cis-Eicosatrienoic Acid, 8,11,14-eicosatrienoic acid], the half-maximal inhibitory concentration (IC50) is 15 µM and the inhibition at 5 µM was < 10%. In addition, the inhibition at 10 µM under setting [1] was determined as 42%. Further, the inhibition at 40 µM under setting [2] stood at 92%. In addition, under setting [3], the inhibition at 200 µM is 82%.

As for `CCCCC/C=C\C/C=C\C/C=C\CCCCC(=O)OCC(COC(=O)CCCC/C=C\C/C=C\C/C=C\CCCCC)OC(=O)CCCC/C=C\C/C=C\C/C=C\CCCCC` [Tri-γ-Linolenin, tri-γ-linolenin], the IC50 was > 200 µM and the inhibition at 5 µM is < 10%. Under setting [1], the inhibition at 10 µM was < 10%. Moreover, the inhibition at 40 µM under setting [2] was < 10%. Besides, the inhibition at 200 µM under setting [3] is < 10%.

Turning to `CCCCCCCCCCCCCC/C=C\CCCC(=O)O` [5-Eicosenoic Acid, 5-eicosenoic acid], the IC50 is > 200 µM and the inhibition at 5 µM was < 10%. Moreover, under setting [1], the inhibition at 10 µM is < 10%. Moreover, under setting [2], the inhibition at 40 µM is < 10%. In addition, under setting [3], the inhibition at 200 µM was < 10%.

`CCCCCCCC/C=C\CCCCCCCCO` [Oleyl alcohol]: under setting [4], the inhibition at 40 µM was < 10% and the inhibition at 200 µM is < 10%.

With `CCCCC/C=C\C/C=C\CCCCCCCCC#N` [linoleyl cyanide nitrile], the IC50 is > 200 µM.

With `CCCCC/C=C\CCCCCCCCCCC(=O)O` [12-Octadecenoic Acid, 12-octadecenoic acid], the 50% inhibitory concentration (IC50) is > 200 µM and the inhibition at 5 µM is < 10%. In addition, under setting [1], the inhibition at 10 µM was < 10%. Under setting [2], the inhibition at 40 µM is < 10%. Further, the inhibition at 200 µM under setting [3] is < 10%.
